Data on 16 compounds can be found in patent US20220153734A1, “Pyrazolopyridine Compounds For IRE1 Inhibition” (Optikira, LLC, priority 2019, published 2022).

In test [1] the test system is ARPE-19 cells stably expressing XBP1 (a.a. 1-376). In words: Cellular XBP1 splicing assay (NanoLuc luciferase, thapsigargin). It counts as cell-based. Conditions: thapsigargin 150 nM. The method, boiled down:
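ARPE-19 cells carrying an XBP1(1-376)-NanoLuc splicing reporter were pretreated with compound (10-point ½-log series, 0.117% DMSO) for 30 min, then stressed with 150 nM thapsigargin for 4 h at 37° C. Luminescence was read, and IC50 values came from sigmoidal fits of percent inhibition of control.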

A further test addresses T1, IRE1α (Homo sapiens, UniProt O75460).
T1 construct: purchased Signal Chem E31-11G
In words: Biochemical assay: inhibition of RNase activity of IRE1α. The following applies: enzyme 0.325 nM, substrate 100 nM, 20 minutes. The method, boiled down: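 RNase cleavage monitored as dequenching of a 5′ Alexa Fluor 647/3′ quencher RNA oligo (100 nM), stopped with 5 M urea after 20 min at room temperature. Enzyme 0.325 nM, preceded by 30 min compound pre-incubation; buffer Tris/MgCl2/KCl/DTT/Tween, 4% DMSO final. IC50 from curve fit of % inhibition.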

T1 sequence (O75460 468-977 limits assumed): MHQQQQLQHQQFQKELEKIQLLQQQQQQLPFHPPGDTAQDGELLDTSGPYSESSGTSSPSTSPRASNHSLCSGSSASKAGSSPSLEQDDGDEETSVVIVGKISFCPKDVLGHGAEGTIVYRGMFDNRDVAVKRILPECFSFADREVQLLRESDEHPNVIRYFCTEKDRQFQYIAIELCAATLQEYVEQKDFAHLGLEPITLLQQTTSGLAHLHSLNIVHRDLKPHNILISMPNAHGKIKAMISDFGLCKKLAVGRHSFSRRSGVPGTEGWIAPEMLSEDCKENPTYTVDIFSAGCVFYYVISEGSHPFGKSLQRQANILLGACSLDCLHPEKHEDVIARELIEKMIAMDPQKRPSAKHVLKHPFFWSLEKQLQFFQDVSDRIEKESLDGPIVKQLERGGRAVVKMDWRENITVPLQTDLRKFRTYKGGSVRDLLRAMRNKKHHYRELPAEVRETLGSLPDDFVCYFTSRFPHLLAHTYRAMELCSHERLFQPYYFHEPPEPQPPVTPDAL

For the compound `COCCN[C@H]1CC[C@H](c2cnc(N)c3c(-c4cc(F)c(NS(=O)(=O)c5cccc(C(F)(F)F)c5)cc4F)nn(C(C)C)c32)CC1` [Compound A30, N-(4-(4-amino-1-isopropyl-7-((1r,4r)-4-((2-methoxyethyl)amino)cyclohexyl)-1H-pyrazolo[4,3-c]pyridin-3-yl)-2,5-difluorophenyl)-3-(trifluoromethyl)benzenesulfonamide], the IC50 was found to be 93 nM in test [1] (Homo sapiens, ARPE-19, 4 h) and 3.8 nM against IRE1α.

Take `CC(C)n1nc(-c2ccc(NS(=O)(=O)Cc3ccccc3Cl)c(F)c2)c2c(N)ncc(C3=CCC(NC4CC(F)(F)C4)CC3)c21` (single isomer, unassigned) [Compound B49, N-(4-(4-amino-7-(4-((3,3-difluorocyclobutyl)amino)cyclohex-1-en-1-yl)-1-isopropyl-1H-pyrazolo[4,3-c]pyridin-3-yl)-2-fluorophenyl)-1-(2-chlorophenyl)methanesulfonamide]: the figures for the IC50 (in test [1] (4 hour); at IRE1α) were 64 nM and 4.1 nM, respectively.

Regarding `COCC(C)NC1CC=C(c2cnc(N)c3c(-c4ccc(NS(=O)(=O)Cc5ccccc5Cl)c(F)c4)nn(C(C)C)c23)CC1` (single isomer, unassigned) [Compound B4, N-(4-(4-amino-1-isopropyl-7-(4-((1-methoxypropan-2-yl)amino)cyclohex-1-en-1-yl)-1H-pyrazolo[4,3-c]pyridin-3-yl)-2-fluorophenyl)-1-(2-chlorophenyl)methanesulfonamide], the IC50 in test [1] (Homo sapiens, ARPE-19, 4 h) was found to be 6.8 nM; at IRE1α it was 1.2 nM.

As for `COCCN[C@H]1CC[C@H](c2cnc(N)c3c(-c4cc(F)c(NS(=O)(=O)c5cc(OC(F)F)ccc5F)cc4F)nn(C(C)C)c32)CC1` [Compound A5, N-(4-(4-amino-1-isopropyl-7-((1r,4r)-4-((2-methoxyethyl)amino)cyclohexyl)-1H-pyrazolo[4,3-c]pyridin-3-yl)-2,5-difluorophenyl)-5-(difluoromethoxy)-2-fluorobenzenesulfonamide], the IC50 in test [1] (Homo sapiens, ARPE-19, 4 h) came to 25 nM; on IRE1α it was 1.9 nM.

For the compound `COCCN(CCOC)[C@H]1CC[C@H](c2cnc(N)c3c(-c4cc(F)c(NS(=O)(=O)c5cc(OC)ccc5F)cc4F)nn(C(C)C)c32)CC1` [Compound A27, N-(4-(4-amino-7-((1r,4r)-4-(bis(2-methoxyethyl)amino)cyclohexyl)-1-isopropyl-1H-pyrazolo[4,3-c]pyridin-3-yl)-2,5-difluorophenyl)-2-fluoro-5-methoxybenzenesulfonamide], the IC50 in test [1] (Homo sapiens, ARPE-19, 4 h) was 13 nM; at IRE1α, 13 nM.

For `COCCN[C@H]1CC[C@H](c2cnc(N)c3c(-c4cc(F)c(NS(=O)(=O)c5cc(C#N)ccc5F)cc4F)nn(C(C)C)c32)CC1` [Compound A21, N-(4-(4-amino-1-isopropyl-7-((1r,4r)-4-((2-methoxyethyl)amino)cyclohexyl)-1H-pyrazolo[4,3-c]pyridin-3-yl)-2,5-difluorophenyl)-5-cyano-2-fluorobenzenesulfonamide], the 50% inhibitory concentration (IC50) in test [1] (Homo sapiens, ARPE-19, 4 h) amounted to 3800 nM; at IRE1α, 4.7 nM.

As for `COCC(C)NC1CC=C(c2cnc(N)c3c(-c4ccc(NS(=O)(=O)c5ccccc5Cl)c(F)c4)nn(C(C)C)c23)CC1` (centres unmarked) [Compound B3], the IC50 in test [1] (Homo sapiens, ARPE-19, 4 h) is 11 nM; at IRE1α, 7 nM.

For the compound `CC(C)n1nc(-c2cc(F)c(NS(=O)(=O)c3ccccc3F)cc2F)c2c(N)ncc([C@H]3CC[C@H](N4CCOCC4)CC3)c21` [Compound A3], the IC50 in test [1] (Homo sapiens, ARPE-19, 4 h) came out at 15 nM; at IRE1α, 16 nM.

For the compound `Nc1ncc(C2=CCC(NC3COC3)CC2)c2c1c(-c1ccc(NS(=O)(=O)c3ccccc3Cl)c(F)c1)nn2C1CC1` (single isomer, unassigned) [Compound B19, N-(4-(4-amino-1-cyclopropyl-7-(4-(oxetan-3-ylamino)cyclohex-1-en-1-yl)-1H-pyrazolo[4,3-c]pyridin-3-yl)-2-fluorophenyl)-2-chlorobenzenesulfonamide], the IC50 in test [1] (4 hour) is 20 nM; against IRE1α, 3.5 nM.

`Cc1ccc(F)c(S(=O)(=O)Nc2ccc(-c3nn(C(C)C)c4c(C5=CCC(NC6COC6)CC5)cnc(N)c34)cc2F)c1` (single isomer, unassigned) [Compound B17, N-(4-(4-amino-1-isopropyl-7-(4-(oxetan-3-ylamino)cyclohex-1-en-1-yl)-1H-pyrazolo[4,3-c]pyridin-3-yl)-2-fluorophenyl)-2-fluoro-5-methylbenzenesulfonamide]: the results for the IC50 (in test [1] (4 hour); at IRE1α) were 21 nM and 2.2 nM, respectively.

For `CCn1nc(-c2ccc(NS(=O)(=O)Cc3ccccc3Cl)cc2)c2c(N)ncc(C3=CCC(NC4COC4)CC3)c21` (single isomer, unassigned) [Compound B24, N-(4-(4-amino-1-ethyl-7-(4-(oxetan-3-ylamino)cyclohex-1-en-1-yl)-1H-pyrazolo[4,3-c]pyridin-3-yl)phenyl)-1-(2-chlorophenyl)methanesulfonamide], the IC50 in test [1] (4 hour) was determined as 580 nM; at IRE1α, 53 nM.

Consider `Nc1ncc([C@H]2CC[C@H](NC3COC3)CC2)c2c1c(-c1ccc(NS(=O)(=O)Cc3ccccc3F)c(F)c1)nn2C1CC1` [Compound A54, N-(4-(4-amino-1-cyclopropyl-7-((1r,4r)-4-(oxetan-3-ylamino)cyclohexyl)-1H-pyrazolo[4,3-c]pyridin-3-yl)-2-fluorophenyl)-1-(2-fluorophenyl)methanesulfonamide], for which the IC50 in test [1] (Homo sapiens, ARPE-19, 4 h) worked out at 9 nM; at IRE1α, 0.9 nM.

With `CC(CF)NC1CC=C(c2cnc(N)c3c(-c4ccc(NS(=O)(=O)c5ccccc5Cl)c(F)c4)nn(C(C)C)c23)CC1` (single isomer, unassigned) [Compound B41, N-(4-(4-amino-7-(4-((1-fluoropropan-2-yl)amino)cyclohex-1-en-1-yl)-1-isopropyl-1H-pyrazolo[4,3-c]pyridin-3-yl)-2-fluorophenyl)-2-chlorobenzenesulfonamide], the IC50 was found to be 10 nM in test [1] (4 hour) and 6.1 nM against IRE1α.

Turning to `COCCN[C@H]1CC[C@H](c2cnc(N)c3c(-c4cc(F)c(NS(=O)(=O)c5ccc(F)cc5F)cc4F)nn(C(C)C)c32)CC1` [Compound A24, N-(4-(4-amino-1-isopropyl-7-((1r,4r)-4-((2-methoxyethyl)amino)cyclohexyl)-1H-pyrazolo[4,3-c]pyridin-3-yl)-2,5-difluorophenyl)-2,4-difluorobenzenesulfonamide], the IC50 in test [1] (Homo sapiens, ARPE-19, 4 h) came to 82 nM; at IRE1α, 5.4 nM.

Regarding `CCn1nc(-c2ccc(NS(=O)(=O)c3ccccc3Cl)c(F)c2)c2c(N)ncc(C3=CCC(NC4COC4)CC3)c21` (single isomer, unassigned) [Compound B62, N-(4-(4-amino-1-ethyl-7-(4-(oxetan-3-ylamino)cyclohex-1-en-1-yl)-1H-pyrazolo[4,3-c]pyridin-3-yl)-2-fluorophenyl)-2-chlorobenzenesulfonamide], the IC50 in test [1] (4 hour) stood at 400 nM; on IRE1α, 75 nM.

On to `CC(F)CNC1CC=C(c2cnc(N)c3c(-c4ccc(NS(=O)(=O)Cc5ccccc5Cl)c(F)c4)nn(C(C)C)c23)CC1` (single isomer, unassigned) [Compound B43, N-(4-(4-amino-7-(4-((2-fluoropropyl)amino)cyclohex-1-en-1-yl)-1-isopropyl-1H-pyrazolo[4,3-c]pyridin-3-yl)-2-fluorophenyl)-1-(2-chlorophenyl)methanesulfonamide], for which the IC50 in test [1] (4 hour) is 5.1 nM; at IRE1α, 0.5 nM.

As a reminder, the IC50 is the point on the concentration scale where inhibition reaches its midpoint.
